Source: article PMC10331583, “Control of fibrosis with enhanced safety via asymmetric inhibition of prolyl‐tRNA synthetase 1” (EMBO Molecular Medicine, 2023)
“And” between values parts separate entries of the source, which are not always exact repeats. Identical values can stand only once.

Columns and labels:
PARS1 WT = target: T1, PARS1 WT (Homo sapiens, UniProt P07814); experiment: Microscale thermophoresis (MST), PARS1 WT; format: binding; conditions: for Fraction bound: single replicates
T1 construct: His‐PARS1 (1001–1,512 aa); made in house; host or cells: Escherichia coli
T1 sequence (P07814 1001-1512 limits assumed): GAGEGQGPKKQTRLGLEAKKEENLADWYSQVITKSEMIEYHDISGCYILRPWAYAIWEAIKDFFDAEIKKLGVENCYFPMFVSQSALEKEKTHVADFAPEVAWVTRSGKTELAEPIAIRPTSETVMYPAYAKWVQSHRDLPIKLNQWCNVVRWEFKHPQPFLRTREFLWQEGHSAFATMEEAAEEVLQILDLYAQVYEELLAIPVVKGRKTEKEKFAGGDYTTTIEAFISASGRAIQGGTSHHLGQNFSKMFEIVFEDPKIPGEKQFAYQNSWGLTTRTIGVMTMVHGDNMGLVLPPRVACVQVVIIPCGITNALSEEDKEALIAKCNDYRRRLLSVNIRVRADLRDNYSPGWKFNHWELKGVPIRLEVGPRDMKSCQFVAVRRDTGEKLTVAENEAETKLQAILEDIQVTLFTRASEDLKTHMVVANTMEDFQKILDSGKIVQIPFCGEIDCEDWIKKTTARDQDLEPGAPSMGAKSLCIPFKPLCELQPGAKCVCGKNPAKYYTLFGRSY

in vitro = conditions: human, Cytotoxicity
[1] = test system: WI‐26 VA4 cells stably expressing PARS1 FA/EA/RL mutant; conditions: human, 72 h
[2] = % of control (single replicates, Experiment #1-#4)

With `O=C(CC1NCCCC1O)Cn1cnc2cc(Br)c(Cl)cc2c1=O` (centres unmarked) [HF, Halofuginone, reference compound] as the compound, how does the “Fraction bound, average” value (PARS1 WT; Dose 3.0518 nM) read?
Its value is -0.0712.

What about the Fraction bound (PARS1 WT; Dose 3.0518 nM) of the same compound?
The Fraction bound was -0.0993 and -0.0066 and -0.1077.

And the “Fraction bound, average” value (PARS1 WT; Dose 6.1035 nM)?
Its value is -0.0015.

What about the Fraction bound (PARS1 WT; Dose 6.1035 nM) of the same compound?
The Fraction bound was 0.0287 and -0.0242 and -0.0091.

What about the “Fraction bound, average” value (PARS1 WT; Dose 12.207 nM) of the same compound?
The value was 0.0765.

And the Fraction bound (PARS1 WT; Dose 12.207 nM)?
Its Fraction bound is 0.1266 and 0.0543 and 0.0485.

What about the “Fraction bound, average” value (PARS1 WT; Dose 24.4141 nM) of the same compound?
The value was 0.1050.

What about the Fraction bound (PARS1 WT; Dose 24.4141 nM) of the same compound?
The Fraction bound was 0.1952 and 0.1143 and 0.0054.

What about the “Fraction bound, average” value (PARS1 WT; Dose 48.8281 nM) of the same compound?
The value was 0.1434.

And the Fraction bound (PARS1 WT; Dose 48.8281 nM)?
The Fraction bound was 0.1825 and 0.1031 and 0.1448.

What about the “Fraction bound, average” value (PARS1 WT; Dose 97.6563 nM) of the same compound?
The value was 0.2466.

What about the Fraction bound (PARS1 WT; Dose 97.6563 nM) of the same compound?
The Fraction bound was 0.2751 and 0.2161 and 0.2485.

What about the “Fraction bound, average” value (PARS1 WT; Dose 195.312 nM) of the same compound?
The value was 0.5229.

And the Fraction bound (PARS1 WT; Dose 195.312 nM)?
Its Fraction bound is 0.5425 and 0.5488 and 0.4774.

And the “Fraction bound, average” value (PARS1 WT; Dose 390.625 nM)?
Its value is 0.7387.

What about the Fraction bound (PARS1 WT; Dose 390.625 nM) of the same compound?
The Fraction bound was 0.7958 and 0.7241 and 0.6962.

What about the “Fraction bound, average” value (PARS1 WT; Dose 781.25 nM) of the same compound?
Its value is 0.9030.

What about the Fraction bound (PARS1 WT; Dose 781.25 nM) of the same compound?
The Fraction bound was 0.8890 and 0.8991 and 0.9209.

And the “Fraction bound, average” value (PARS1 WT; Dose 1562.5 nM)?
The value was 0.9612.

And the Fraction bound (PARS1 WT; Dose 1562.5 nM)?
The Fraction bound was 0.9380 and 1.0072 and 0.9382.

And the “Fraction bound, average” value (PARS1 WT; Dose 3125 nM)?
The value was 0.9287.

What about the Fraction bound (PARS1 WT; Dose 3125 nM) of the same compound?
Its Fraction bound is 0.9278 and 0.9164 and 0.9420.

And the “Fraction bound, average” value (PARS1 WT; Dose 6250 nM)?
The value was 0.9609.

And the Fraction bound (PARS1 WT; Dose 6250 nM)?
The Fraction bound was 0.9251 and 0.9572 and 1.0004.

And the “Fraction bound, average” value (PARS1 WT; Dose 12500 nM)?
Its value is 0.9979.

And the Fraction bound (PARS1 WT; Dose 12500 nM)?
The Fraction bound was 0.9525 and 1.0119 and 1.0291.

And the “Fraction bound, average” value (PARS1 WT; Dose 25000 nM)?
The value was 1.0497.

And the Fraction bound (PARS1 WT; Dose 25000 nM)?
The Fraction bound was 1.0026 and 1.0240 and 1.1224.

What about the “Fraction bound, average” value (PARS1 WT; Dose 50000 nM) of the same compound?
The value was 0.9548.

What about the Fraction bound (PARS1 WT; Dose 50000 nM) of the same compound?
Its Fraction bound is 0.8756 and 0.9971 and 0.9917.

And the “Fraction bound, average” value (PARS1 WT; Dose 100000 nM)?
The value was 1.0743.

And the Fraction bound (PARS1 WT; Dose 100000 nM)?
The Fraction bound was 1.0331 and 1.0480 and 1.1418.

And the “TI (CC50/IC50 for collagen level)” value (WI‐26 VA4 cells)?
Its value is 3.46.

What about the activity at 72 h, 0.001 µM (in vitro; [2]) of the same compound?
Its activity at 72 h, 0.001 µM is 107%.

And the activity at 72 h, 0.01 µM (in vitro; [2])?
The activity at 72 h, 0.01 µM was 96.3%.

What about the activity at 72 h, 0.03 µM (in vitro; [2]) of the same compound?
The activity at 72 h, 0.03 µM was 71.4%.

What about the activity at 72 h, 0.3 µM (in vitro; [2]) of the same compound?
Its activity at 72 h, 0.3 µM is 34.8%.

What about the activity at 72 h, 0.001 µM (in vitro; % of control, average) of the same compound?
The activity at 72 h, 0.001 µM was 106%.

What about the activity at 72 h, 0.003 µM (in vitro; % of control, average) of the same compound?
The activity at 72 h, 0.003 µM was 109%.

And the activity at 72 h, 0.03 µM (in vitro; % of control, average)?
Its activity at 72 h, 0.03 µM is 76.1%.

What about the activity at 72 h, 0.1 µM (in vitro; % of control, average) of the same compound?
The activity at 72 h, 0.1 µM was 41.8%.

And the activity at 72 h, 1 µM (in vitro; % of control, average)?
The activity at 72 h, 1 µM was 20%.

And the “Cytotoxicity HillSlope (best-fit value)” value [1]?
Its value is -0.8245.

What about the “Cytotoxicity LogIC50 (best-fit value)” value [1] of the same compound?
The value was 1.805.
